# Laboratory results reported in patent US9012166B2, “Method for assaying histone methylation enzyme activity” (Kyushu Institute of Technology, priority 2010, dated 2015).
# pIC50: −log10 of the molar value.
# Biological target: T1, G9a (GST-mG9a) (Mus musculus, UniProt Q9Z148)
# T1 sequence (Q9Z148 1-1263): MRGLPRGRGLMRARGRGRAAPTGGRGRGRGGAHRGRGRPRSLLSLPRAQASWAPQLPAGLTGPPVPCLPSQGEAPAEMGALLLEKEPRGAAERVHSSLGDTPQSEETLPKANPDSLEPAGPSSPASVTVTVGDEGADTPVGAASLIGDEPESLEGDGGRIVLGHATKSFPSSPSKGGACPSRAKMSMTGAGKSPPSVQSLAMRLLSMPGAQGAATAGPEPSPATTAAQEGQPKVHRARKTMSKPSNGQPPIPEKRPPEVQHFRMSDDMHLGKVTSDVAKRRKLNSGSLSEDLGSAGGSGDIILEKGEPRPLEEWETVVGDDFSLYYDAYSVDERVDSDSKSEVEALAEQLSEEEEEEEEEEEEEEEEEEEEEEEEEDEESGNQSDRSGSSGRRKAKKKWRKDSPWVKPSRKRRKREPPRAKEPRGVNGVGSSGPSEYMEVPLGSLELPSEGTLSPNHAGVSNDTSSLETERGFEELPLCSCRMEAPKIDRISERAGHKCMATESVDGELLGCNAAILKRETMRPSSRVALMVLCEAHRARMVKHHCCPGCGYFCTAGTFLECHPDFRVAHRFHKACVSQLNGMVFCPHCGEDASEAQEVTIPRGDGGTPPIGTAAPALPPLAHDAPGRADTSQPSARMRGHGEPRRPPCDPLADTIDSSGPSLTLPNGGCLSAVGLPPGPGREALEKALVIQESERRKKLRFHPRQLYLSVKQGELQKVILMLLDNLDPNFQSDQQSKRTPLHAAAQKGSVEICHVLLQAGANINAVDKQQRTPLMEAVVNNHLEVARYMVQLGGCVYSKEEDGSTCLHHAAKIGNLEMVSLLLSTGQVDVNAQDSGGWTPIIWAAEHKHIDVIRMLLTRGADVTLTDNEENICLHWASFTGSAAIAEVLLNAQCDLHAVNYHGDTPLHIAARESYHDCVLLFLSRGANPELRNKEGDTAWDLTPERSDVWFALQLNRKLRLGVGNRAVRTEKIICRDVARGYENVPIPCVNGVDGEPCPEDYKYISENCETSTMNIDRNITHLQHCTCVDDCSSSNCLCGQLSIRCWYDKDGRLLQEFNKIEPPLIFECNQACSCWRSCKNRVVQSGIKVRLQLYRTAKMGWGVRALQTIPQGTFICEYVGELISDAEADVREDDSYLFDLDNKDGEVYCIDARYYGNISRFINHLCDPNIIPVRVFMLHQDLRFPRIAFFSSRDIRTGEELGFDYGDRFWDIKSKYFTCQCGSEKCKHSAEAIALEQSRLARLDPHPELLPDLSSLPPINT
# Test: Assay for measuring histone methyltransferase activity using peptidyl MCA, inhibitor evaluation with G9a
# Type: biochemical
# Settings: IC50 for G9a, Ac-histone H3 (1-9)-MCA
# Experimental: When G9a was adopted as a histone methyltransferase, the following method was used. 10 μL of 2×HMT buffer (100 mM Tris-HCl (pH 8.5), 20 mM MgCl2, 40 mM KCl, 20 mM 2-mercaptoethanol, 500 mM sucrose), 0.4 μL of a BSA solution (150 μg/mL), 2 μL of GST-mG9a (0, 0.5 μg/μL), 1 μL of gliotoxin (any of various concentrations) and 2.6 μL of distilled water were mixed and then incubated at room temperature for 1 hour. Then, 2 μL of SAM (10 mM) and 2 μL of a peptidyl MCA (Ac-histone H3 (1-9)-MCA) solution (0.6 mM) were added thereto, which was then incubated at 37° C. for 1 hour. Thereafter, 30 μL of a trypsin solution (20 mg/mL) was added thereto, followed by incubation at 37° C. for 15 minutes. Then, the fluorescence intensity of the solution was measured at an excitation wavelength (λex) of 390 nm and a fluorescence wavelength (λem) of 460 nm. The final concentration of GST-mG9a during the measurement of fluorescence intensity was 0.05 μg/μL. The results of the assay for measuring histone methyltransferase activity are shown in the middle panel of FIG. 18.
# The rate of the inhibition of methylation by gliotoxin was calculated from the results in the left panel and the middle panel of FIG. 18. Specifically, the value (%) was calculated which was obtained by dividing “a value obtained by subtracting “the fluorescence intensity of AMC when peptidase was added but gliotoxin was not added” from “the fluorescence intensity of AMC when both peptidase and gliotoxin were added”” by “a value obtained by subtracting “the fluorescence intensity of AMC when peptidase was added but gliotoxin was not added” from “the fluorescence intensity of AMC when no peptidase or gliotoxin was added”” and multiplying the resultant value by 100. The rate (%) of the inhibition of methylation by gliotoxin is shown in the right panel of FIG. 18.
# Specifically, the assay for measuring histone methyltransferase activity was carried out by the same method as the method using G9a […] in Example 8 except for using S-Adenosyl-L-homocysteine (SAH) in place of gliotoxin. SAH is a by-product of the methylation reaction and is known to inhibit histone methyltransferase in a negative feedback manner. […] The rate (%) of the inhibition of methylation by SAH was calculated from the results in the left panel of FIG. 19. The results are shown in the right panel of FIG. 19.
# When G9a was adopted as a histone methyltransferase, the following method was used. […] Then, the fluorescence intensity of the solution was measured at an excitation wavelength (λex) of 330 nm and a fluorescence wavelength (λem) of 380 nm or at an excitation wavelength (λex) of 390 nm and a fluorescence wavelength (λem) of 460 nm. The final concentration of GST-mG9a during the measurement of fluorescence intensity was 0 μg/μL or 0.05 μg/μL.
smiles,measurement,setting,value
CN1C(=O)[C@]23CC4=CC=C[C@H](O)[C@H]4N2C(=O)[C@@]1(CO)SS3 [gliotoxin],pIC50,"Example 8, AMC fluorescence λex 390 nm/λem 460 nm, FIG. 18",5.55
same,pIC50,"Example 14, AMC fluorescence λex 390 nm/λem 460 nm, left panel of FIG. 27",5.74
same,pIC50,"Example 14, peptidyl MCA fluorescence λex 330 nm/λem 380 nm, right panel of FIG. 27",5.55
